The results in this text go back to US8975289B2, “Benzyl aralkyl ether compounds, method for preparing same, intermediate compounds, use of said compounds, method for treatment and/or prevention, pharmaceutical composition and medicament containing same” (priority 2009, dated 2015).

In brackets after ≈: the same amount, converted by molar mass.

Common to all, as to assay type: cell-based
The subject of test [1] is Trichophyton mentagrophytes 2. The test can be described thus: Broth microdilution MIC (M38-A), filamentous fungi, strain II. The protocol: (§1) For the experiments of the present invention, the dermatophyte-type fungi strains that were obtained from clinical isolates and laboratory isolates, as described in Table 2 as follows, were used:
(§2) The fungal strains were grown on agar potato medium in a sloping chute at a temperature of 30° C. for a period of 7 to 15 days.
(§3) For the experiments, the compound 1-[2-(2,4-dichlorophenyl)-2-{[4-(trifluoromethyl)benzyl]oxy}ethyl]-1H-imidazole (BL-123) in the form of its nitrate salt and miconazole nitrate were used. Both compounds were dissolved in dimethyl sulfoxide (DMSO) to match the final concentration of the compound equal to or less than 1%.
(§4) The methodology used to test the sensitivity of the agent was of broth microdilution according to the method described in Standard M38-A (Reference method for broth dilution tests for determining the sensitivity to antifungal therapy for filamentous fungi; NCCLS, volume 22 No. 16, USA, 2008) as follows.
(§5) The fungus was cultivated pursuant to item 4.1. To the tubes wherein the fungi were grown, 5 mL of saline solution were added in order to extract the fungi from the agar surface. Then, this homogeneous suspension was transferred to a new tube and the colony-forming units (CFUs) were quantified according to counting methods: (i) in Sabouraud dextrose agar plates and (ii) in a Neubauer chamber.
(§6) Then, the fungi strains listed in Table 2 were inoculated in duplicate in a 96-well plate. There were used inocula of from 2 to 6×10^3 CFU/mL of fungi, per well, in a total volume of 0.2 mL of RPMI-1640 (containing L-glutamine and without bicarbonate) buffered at pH 7.0 with MOPS (acid 3-(N-morpholine) 15 propanesulfonic). The procedure was performed in a laminar flow.
(§7) The compounds to be tested were added in a serial dilution, in duplicate, in final concentrations of 16 μg/mL; 8 μg/mL; 4 μg/mL; 2 μg/mL; 1 μg/mL; 0.5 μg/mL; 0.25 μg/mL; 0.125 μg/mL; 0.0625 μg/mL; or 0.03125 μg/mL in culture medium present in each well.
(§8) The incubation of fungi with these compounds was performed by 4, 5, 6 and 7 days at temperatures from 30 to 35° C.
(§9) The fungi quantification was carried out with the growth of fungi in each well being compared to the growth occurred in the negative control by means of a mirror reading. The negative control is represented by fungi grown in culture medium in the absence of the tested compounds. The methodology of this comparison is the numerical rating to which the microdilution well was submitted. […]
(Dilution methods test growth across graded concentrations, often in twofold steps.)

Test [2] relates to Microsporum gypseum 40051. The test can be described thus: Broth microdilution MIC (M38-A), filamentous fungi, strain XII. The following applies: Nannizzia gypsea. The protocol:
as §1, §2, §3, §4, §5, §6, §7, §8, §9

Test [3] has as its system Trichophyton mentagrophytes 9533. The test can be described thus: Broth microdilution MIC (M38-A), filamentous fungi, strain XIII. As for the experimental part: as §1, §2, §3, §4, §5, §6, §7, §8, §9
The test system of a further test is Candida albicans 10231. The test can be described thus: Broth microdilution MIC (M27-A2), yeast, strain XIV. The following applies: Candida albicans; strain XIV 10231, 48 hours incubation; read-out: MIC. The protocol:
(§10) For the experiments of the present invention (i) yeast strains obtained from clinical isolates and laboratory isolates, and (ii) bacterial strains obtained from laboratory isolates were used, as described in Table 5 as follows. The yeast strains were grown in culture medium Sabouraud Dextrose Agar maintained at a temperature of 35° C. for 48 hours. […] The compounds were dissolved in dimethyl sulfoxide (DMSO) to match the final concentration of the compound equal to or less than 1%. The methodology used to test the sensitivity of the agent was broth microdilution according to the method described in Standard M27-A2 (Reference method for broth dilution tests to determine the sensitivity of yeasts to antifungal therapy-second edition, NCCLS, volume 22 number 15, USA, 2002) as follows. […] Then the suspensions were diluted in culture medium RPMI-1640 (buffered with MOPS 0.165 mol/l) at a final concentration of 50 to 2500 CFU/mL. The diluted suspensions were inoculated in duplicate in a 96-well plate. The procedure was performed in a laminar flow. […] The incubation of fungi with these compounds was carried out for 48 hours at temperature of 30 to 35° C. […] We have agreed in this experiment that the turbid medium is the result of microbial growth and the presence of deposit and a clear medium represents the absence of microbial growth. The minimum inhibitory concentration (MIC) was defined as the lowest tested drug concentration that prevents any degree of […] growth.

Another test concerns Candida glabrata 2001. In words: Broth microdilution MIC (M27-A2), yeast, strain XVI. The following applies: Nakaseomyces glabratus; strain XVI 2001, 48 hours incubation; read-out: MIC. The protocol:
as §10

[4] abbreviates: 96 h, strain II 2, reading Day 4, average of four experiments.
The mark [5] stands for this setting: 168 h, strain II 2, reading Day 7, average of four experiments.
The mark [6] stands for this setting: 96 h, strain XII 40051, reading Day 4, average of four experiments.
Where [7] appears, read: 168 h, strain XII 40051, reading Day 7, average of four experiments.
Setting [8] is: 96 h, strain XIII 9533, reading Day 4, average of four experiments.
The mark [9] stands for this setting: 168 h, strain XIII 9533, reading Day 7, average of four experiments.

Take `FC(F)(F)c1ccc(COC(Cn2ccnc2)c2ccc(Cl)cc2Cl)cc1` (stereo not shown) [BL-123, 1-[2-(2,4-dichlorophenyl)-2-{[4-(trifluoromethyl)benzyl]oxy}ethyl]-1H-imidazole]: the minimal inhibitory concentration (MIC) – broadly, the smallest concentration in the dilution series that meets the test's criterion for growth inhibition – amounted to 4 µg/mL (≈ 9.63 µM) in test [1] (setting [4]); 4 µg/mL (≈ 9.63 µM) in test [1] (setting [5]); 0.03 µg/mL (≈ 0.0722 µM) in test [2] (setting [6]); 0.03 µg/mL (≈ 0.0722 µM) in test [2] (setting [7]); 0.03 µg/mL (≈ 0.0722 µM) in test [3] (setting [8]); 0.125 µg/mL (≈ 0.301 µM) in test [3] (setting [9]). In addition, the MIC in the test with Candida albicans 10231 worked out at 8 µg/mL (≈ 19.3 µM); in the test on Candida glabrata 2001, 0.125 µg/mL (≈ 0.301 µM).

On to `Clc1ccc(COC(Cn2ccnc2)c2ccc(Cl)cc2Cl)c(Cl)c1` (stereo not shown) [Miconazole, miconazole, reference compound], for which the MIC worked out at 1 µg/mL (≈ 2.4 µM) in test [1] (setting [4]); 1 µg/mL (≈ 2.4 µM) in test [1] (setting [5]); 0.03 µg/mL (≈ 0.0721 µM) in test [2] (setting [6]); 0.06 µg/mL (≈ 0.144 µM) in test [2] (setting [7]); 0.06 µg/mL (≈ 0.144 µM) in test [3] (setting [8]); 0.125 µg/mL (≈ 0.3 µM) in test [3] (setting [9]). Also, the MIC in the test with Candida albicans 10231 was 4 µg/mL (≈ 9.61 µM); in the test on Candida glabrata 2001 it was 0.125 µg/mL (≈ 0.3 µM).
